The values that follow come from article PMC12560758, “YsxC is a placeholder for ribosomal protein uL2 during 50S ribosomal subunit assembly” (Nucleic Acids Research, 2025).

The assay has as its target T1, YsxC (Bacillus subtilis, UniProt P38424).
T1 construct: gene engB; full-length YsxC, 22 kDa, N-terminal His6 tag (pET15b-ysxC) cleaved by thrombin, expressed in E. coli BL21(DE3)
Briefly: cryo-EM structure of the complex on the […].5S(YsxC) particle. In kind it is binding. Conditions: 2 mM GMPPNP, 15 mM MgCl2, 50 mM NH4Cl, pH 7.5, 37 °C; nucleotide site; non-hydrolyzable GTP analogue.

T1 sequence (P38424 whole entry): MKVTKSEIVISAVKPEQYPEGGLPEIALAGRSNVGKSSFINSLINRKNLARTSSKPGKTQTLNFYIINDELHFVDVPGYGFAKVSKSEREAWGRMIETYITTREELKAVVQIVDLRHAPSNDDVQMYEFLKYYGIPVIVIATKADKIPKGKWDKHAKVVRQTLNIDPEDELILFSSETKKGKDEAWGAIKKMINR

`Nc1nc2c(ncn2[C@@H]2O[C@H](COP(=O)(O)OP(=O)(O)NP(=O)(O)O)[C@@H](O)[C@H]2O)c(=O)[nH]1` [GMPPNP]: the “cryo-EM structure of the complex on the 44.5S(YsxC) particle” value was “the density corresponding to the GMPPNP nucleotide (colored in blue), are indicated”.
